Measurements as given in US8283361B2 (AstraZeneca AB, priority 2008, dated 2012).

Target: S. aureus GyrB ATPase (Staphylococcus aureus, UniProt P0A0K8)
Assay: biochemical
Conditions: compound at 1 μM; one value per test if tested more than once; read-out: % Inhibition of S. aureus GyrB ATPase
Protocol: S. aureus GyrB ATPase Inhibition Activity: Compounds may be tested for inhibition of S. aureus GyrB ATPase activity using an ammonium molybdate/malachite green-based phosphate detection assay (Lanzetta, P. A., L. J. Alvarez, P. S. Reinach, and O. A. Candia, 1979, 100: 95-97). Assays can be performed in multiwell plates in 30 μl reactions containing: 50 mM Hepes buffer pH 7.5, 75 mM ammonium acetate, 8.0 mM magnesium chloride, 0.5 mM ethylenediaminetetraacetic acid, 5% glycerol, 1.0 mM 1,4-Dithio-DL-threitol, 200 nM bovine serum albumin, 1.0 μg/m1 sheared salmon sperm DNA, 250 pM E. coli GyrA, 250 pM S. aureus GyrB, 250 μM ATP, and compound in dimethylsulfoxide. Reactions can be quenched with 30 μl of ammonium molybdate/malachite green detection reagent containing 1.2 mM malachite green hydrochloride, 8.5 mM ammonium molybdate tetrahydrate, and 1 M hydrochloric acid. […] An IC50 measurement of compound potency for each compound can be determined from reactions performed in the presence of 10 different compound concentrations.

Sequence of S. aureus GyrB ATPase (P0A0K8 whole entry): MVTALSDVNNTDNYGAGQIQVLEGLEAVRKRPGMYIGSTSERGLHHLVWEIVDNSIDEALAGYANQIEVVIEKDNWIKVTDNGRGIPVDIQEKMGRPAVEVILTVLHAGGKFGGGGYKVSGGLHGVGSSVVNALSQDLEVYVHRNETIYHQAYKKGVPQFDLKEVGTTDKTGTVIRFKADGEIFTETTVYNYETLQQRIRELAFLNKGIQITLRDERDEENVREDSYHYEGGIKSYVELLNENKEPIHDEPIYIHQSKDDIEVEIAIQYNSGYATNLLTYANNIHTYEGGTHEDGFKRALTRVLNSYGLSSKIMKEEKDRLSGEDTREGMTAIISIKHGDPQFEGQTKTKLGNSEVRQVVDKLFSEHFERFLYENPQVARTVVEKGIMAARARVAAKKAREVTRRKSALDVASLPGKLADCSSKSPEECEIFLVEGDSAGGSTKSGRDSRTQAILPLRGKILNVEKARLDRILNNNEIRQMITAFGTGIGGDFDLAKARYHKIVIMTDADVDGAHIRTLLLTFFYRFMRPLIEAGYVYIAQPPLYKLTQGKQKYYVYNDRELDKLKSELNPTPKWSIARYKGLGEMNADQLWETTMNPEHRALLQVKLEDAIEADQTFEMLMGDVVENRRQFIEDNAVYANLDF
Sequence of S. aureus GyrB ATPase (P0AES4 whole entry, further chain): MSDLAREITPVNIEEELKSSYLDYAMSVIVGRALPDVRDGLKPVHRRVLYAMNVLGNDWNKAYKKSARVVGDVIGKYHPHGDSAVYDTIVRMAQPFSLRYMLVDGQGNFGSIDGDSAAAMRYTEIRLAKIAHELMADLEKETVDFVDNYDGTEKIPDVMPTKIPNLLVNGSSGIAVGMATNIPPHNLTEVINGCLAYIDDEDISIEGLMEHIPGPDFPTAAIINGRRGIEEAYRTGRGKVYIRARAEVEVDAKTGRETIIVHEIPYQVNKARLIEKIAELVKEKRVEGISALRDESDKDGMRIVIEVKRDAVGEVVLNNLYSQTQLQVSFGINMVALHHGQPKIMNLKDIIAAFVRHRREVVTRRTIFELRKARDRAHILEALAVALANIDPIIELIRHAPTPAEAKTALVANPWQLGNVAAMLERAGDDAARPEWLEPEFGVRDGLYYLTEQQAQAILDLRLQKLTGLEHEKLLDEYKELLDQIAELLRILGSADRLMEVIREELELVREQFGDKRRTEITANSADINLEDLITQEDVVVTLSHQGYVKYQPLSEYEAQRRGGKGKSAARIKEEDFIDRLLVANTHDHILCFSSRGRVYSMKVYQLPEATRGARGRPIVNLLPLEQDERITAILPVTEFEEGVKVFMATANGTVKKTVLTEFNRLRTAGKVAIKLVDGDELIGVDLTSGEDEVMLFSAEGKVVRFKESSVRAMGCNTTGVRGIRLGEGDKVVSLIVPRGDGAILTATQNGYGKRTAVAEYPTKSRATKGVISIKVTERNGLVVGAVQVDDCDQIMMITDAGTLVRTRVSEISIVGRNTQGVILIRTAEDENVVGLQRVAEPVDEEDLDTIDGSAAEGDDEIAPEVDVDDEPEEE

Row | SMILES | inhibition at 1 µM [%]
1 | CCNC(=O)Nc1cc(-c2nc(C(F)(F)F)cs2)c(-c2ccc3c(c2)c(=O)c(C(=O)N2CCN(S(C)(=O)=O)CC2)cn3C2CN(C)C2)cn1 [Example 163, 1-ethyl-3-(5-(1-(1-methylazetidin-3-yl)-3-(4-(methylsulfonyl)piperazine-1-carbonyl)-4-oxo-1,4-dihydroquinolin-6-yl)-4-(4-(trifluoromethyl)thiazol-2-yl)pyridin-2-yl)urea] | 106
2 | CCCNC(=O)Nc1cc(-c2nc(C(F)(F)F)cs2)c(-c2ccc3c(c2)c(=O)c(C(=O)O)cn3CCC2CCN(C)CC2)cn1 [Example 198, 1-(2-(1-methylpiperidin-4-yl)ethyl)-4-oxo-6-(6-(3-propylureido)-4-(4-(trifluoromethyl)thiazol-2-yl)pyridin-3-yl)-1,4-dihydroquinoline-3-carboxylic acid] | 108
3 | CCNC(=O)Nc1cc(-c2nc(C(F)(F)F)cs2)c(-c2ccc3c(=O)c(C(=O)O)cn(CC4CC4)c3c2)cn1 [Example 32, 1-(cyclopropylmethyl)-7-{6-[(ethylcarbamoyl)amino]-4-[4-(trifluoromethyl)-1,3-thiazol-2-yl]pyridin-3-yl}-4-oxo-1,4-dihydroquinoline-3-carboxylic acid] | 98
4 | CCNC(=O)Nc1cc(-c2nc(C(F)(F)F)cs2)c(-c2ccc3c(=O)c(C(=O)NC)cn(CC(C)C)c3c2)cn1 [Example 341, 7-{6-[(ethylcarbamoyl)amino]-4-[4-(trifluoromethyl)-1,3-thiazol-2-yl]pyridin-3-yl}-N-methyl-1-(2-methylpropyl)-4-oxo-1,4-dihydroquinoline-3-carboxamide] | 99
5 | CCNC(=O)Nc1cc(-c2nc(C(F)(F)F)cs2)c(-c2ccc3c(c2)c(=O)c(C(=O)NCCO)cn3Cc2noc(C3CC3)n2)cn1 [Example 329] | 97
6 | CCNC(=O)Nc1cc(-c2nc(C(F)(F)F)cs2)c(-c2ccc3c(c2)c(=O)c(C(=O)O)cn3[C@H](CO)C(C)(C)C)cn1 [Example 81, 6-{6-[(ethylcarbamoyl)amino]-4-[4-(trifluoromethyl)-1,3-thiazol-2-yl]pyridin-3-yl}-1-[(1S)-1-(hydroxymethyl)-2,2-dimethylpropyl]-4-oxo-1,4-dihydroquinoline-3-carboxylic acid] | 96
7 | CCNC(=O)Nc1cc(-c2nc(C(F)(F)F)cs2)c(-c2ccc3c(c2)c(=O)c(C(=O)O)cn3C[C@H]2CCN(CC)C2)cn1 [Example 249, (S)-1-((1-ethylpyrrolidin-3-yl)methyl)-6-(6-(3-ethylureido)-4-(4-(trifluoromethyl)thiazol-2-yl)pyridin-3-yl)-4-oxo-1,4-dihydroquinoline-3-carboxylic acid] | 113
8 | CCCNC(=O)Nc1cc(-c2nc(C(F)(F)F)cs2)c(-c2ccc3c(c2)c(=O)c(C(=O)N2CCN(S(=O)(=O)N(C)C)CC2)cn3CCN(C)C)cn1 [Example 154, 4-(1-(2-(dimethylamino)ethyl)-4-oxo-6-(6-(3-propylureido)-4-(4-(trifluoromethyl)thiazol-2-yl)pyridin-3-yl)-1,4-dihydroquinoline-3-carbonyl)-N,N-dimethylpiperazine-1-sulfonamide] | 107
9 | CCNC(=O)Nc1cc(-c2nc(C(F)(F)F)cs2)c(-c2ccc3c(=O)c(C(=O)OCC)cn(CC)c3c2)cn1 [Example 42, Ethyl 1-ethyl-7-(6-(3-ethylureido)-4-(4-trifluoromethylthiazol-2-yl)pyridin-3-yl)-4-oxo-1,4-dihydroquinoline-3-carboxylate] | 113
10 | CCNC(=O)Nc1cc(-c2nc(C(F)(F)F)cs2)c(-c2ccc3c(c2)c(=O)c(C(=O)NCCCO)cn3C(COC)COC)cn1 [Example 149, 1-(1,3-dimethoxypropan-2-yl)-6-(6-(3-ethylureido)-4-(4-(trifluoromethyl)thiazol-2-yl)pyridin-3-yl)-N-(3-hydroxypropyl)-4-oxo-1,4-dihydroquinoline-3-carboxamide] | 93
11 | CCNC(=O)Nc1cc(-c2nc(CC)cs2)c(-c2ccc3c(c2)c(=O)c(C(=O)NC)cn3CC)cn1 [Example 37, 1-ethyl-6-(4-(4-ethylthiazol-2-yl)-6-(3-ethylureido)pyridin-3-yl)-N-methyl-4-oxo-1,4-dihydroquinoline-3-carboxamide] | 96
12 | CCNC(=O)Nc1cc(-c2nc(C(F)(F)F)cs2)c(-c2ccc3c(c2)c(=O)c(C(=O)NC2CC2)cn3C2CC2)cn1 [Example 326, N,1-Dicyclopropyl-6-(6-(3-ethylureido)-4-(4-(trifluoromethyl)thiazol-2-yl)pyridin-3-yl)-4-oxo-1,4-dihydroquino-line-3-carboxamide] | 97
13 | CCNC(=O)Nc1cc(-c2nc(C(F)(F)F)cs2)c(-c2ccc3c(=O)c(C(=O)NCCO)cn(Cc4ccccc4)c3c2)cn1 [Example 354, 1-Benzyl-7-{6-[(ethylcarbamoyl)amino]-4-[4-(trifluoromethyl)-1,3-thiazol-2-yl]pyridin-3-yl}-N-(2-hydroxyethyl)-4-oxo-1,4-dihydroquinoline-3-carboxamide] | 98
14 | CCNC(=O)Nc1cc(-c2nc(C(F)(F)F)cs2)c(-c2ccc3c(c2)c(=O)c(C(=O)O)cn3[C@H]2CCCN(CCN3CCOCC3)C2)cn1 [Example 284, (S)-ethyl 6-(6-(3-ethylureido)-4-(4-(trifluoromethyl)thiazol-2-yl)pyridin-3-yl)-1-(1-(2-morpholinoethyl)piperidin-3-yl)-4-oxo-1,4-dihydroquinoline-3-carboxylic acid] | 107
15 | CCNC(=O)Nc1cc(-c2nc(C(F)(F)F)cs2)c(-c2ccc3c(c2)c(=O)c(C(=O)O)cn3C[C@@H]2CCCN(C)C2)cn1 [Example 247, (R)-6-(6-(3-ethylureido)-4-(4-(trifluoromethyl)thiazol-2-yl)pyridin-3-yl)-1-((1-methylpiperidin-3-yl)methyl)-4-oxo-1,4-dihydroquinoline-3-carboxylic acid] | 115
16 | CCNC(=O)Nc1cc(-c2nc(C(F)(F)F)cs2)c(-c2ccc3c(c2)c(=O)c(C(=O)O)cn3C(COC)COC)cn1 [Example 4, 1-(1,3-dimethoxypropan-2-yl)-6-(6-(3-ethylureido)-4-(4-(trifluoromethyl)thiazol-2-yl)pyridin-3-yl)-4-oxo-1,4-dihydroquinoline-3-carboxylic acid] | 98
17 | CCNC(=O)Nc1cc(-c2nc(C(F)(F)F)cs2)c(-c2ccc3c(c2)c(=O)c(C(=O)O)cn3[C@@H]2CCCN(Cc3cccn3C)C2)cn1 [Example 282, (R)-ethyl 6-(6-(3-ethylureido)-4-(4-(trifluoromethyl)thiazol-2-yl)pyridin-3-yl)-1-(1-((1-methyl-1H-pyrrol-2-yl)methyl)piperidin-3-yl)-4-oxo-1,4-dihydroquinoline-3-carboxylic acid] | 105
18 | CCNC(=O)Nc1cc(-c2nc(CC)cs2)c(-c2cc3c4c(c2)c(=O)c(C(=O)NC)cn4CCO3)cn1 [Example 38, 9-(4-(4-ethylthiazol-2-yl)-6-(3-ethylureido)pyridin-3-yl)-N-methyl-7-oxo-3,7-dihydro-2H-[1,4]oxazino[2,3,4-ij]quinoline-6-carboxamide] | 99
19 | CCNC(=O)Nc1cc(-c2nc(C(F)(F)F)cs2)c(-c2ccc3c(=O)c(C(=O)NC)cn(CCOC)c3c2)cn1 [Example 369, 7-{6-[(Ethylcarbamoyl)amino]-4-[4-(trifluoromethyl)-1,3-thiazol-2-yl]pyridin-3-yl}-1-(2-methoxyethyl)-N-methyl-4-oxo-1,4-dihydroquinoline-3-carboxamide] | 97
20 | CCNC(=O)Nc1cc(-c2nc(C(F)(F)F)cs2)c(-c2ccc3c(c2)c(=O)c(C(=O)N2CCN(S(C)(=O)=O)CC2)cn3C(COC)COC)cn1 [Example 145, 1-{5-[1-(1,3-dimethoxypropan-2-yl)-3-{[4-(methylsulfonyl)piperazin-1-yl]carbonyl}-4-oxo-1,4-dihydroquinolin-6-yl]-4-[4-(trifluoromethyl)-1,3-thiazol-2-yl]pyridin-2-yl}-3-ethylurea] | 92
21 | CCNC(=O)Nc1cc(-c2nc(C(F)(F)F)cs2)c(-c2ccc3c(c2)c(=O)c(C(=O)O)cn3C(CC)CO)cn1 (stereo not drawn) [Example 93, 6-(6-(3-ethylureido)-4-(4-(trifluoromethyl)thiazol-2-yl)pyridin-3-yl)-1-(1-hydroxybutan-2-yl)-4-oxo-1,4-dihydroquinoline-3-carboxylic acid] | 95
22 | CCNC(=O)Nc1cc(-c2nc(C(F)(F)F)cs2)c(-c2ccc3c(c2)c(=O)c(C(=O)O)cn3C2CCN(C)CC2)cn1 [Example 323, 6-(6-(3-Ethylureido)-4-(4-(trifluoromethyl)thiazol-2-yl)pyridin-3-yl)-1-(1-methyl-piperidin-4-yl)-4-oxo-1,4-dihydro-quinoline-3-carboxylic acid] | 106
23 | CCCNC(=O)Nc1cc(-c2nc(C(F)(F)F)cs2)c(-c2ccc3c(c2)c(=O)c(C(=O)N2CCN(C)CC2)cn3C2CN(C)C2)cn1 [Example 172, 1-(5-(1-(1-methylazetidin-3-yl)-3-(4-methylpiperazine-1-carbonyl)-4-oxo-1,4-dihydroquinolin-6-yl)-4-(4-(trifluoromethyl)thiazol-2-yl)pyridin-2-yl)-3-propylurea] | 107
24 | CCNC(=O)Nc1cc(-c2nc(C(F)(F)F)cs2)c(-c2ccc3c(c2)c(=O)c(C(=O)O)cn3C[C@@H]2CCCNC2)cn1 [Example 242, (R)-1-((1-piperidin-3-yl)methyl)-6-(6-(3-ethylureido)-4-(4-(trifluoromethyl)thiazol-2-yl)pyridin-3-yl)-4-oxo-1,4-dihydroquinoline-3-carboxylic acid] | 104
